From article PMC11277439, “The role of lysosomal phospholipase A2 in the catabolism of bis(monoacylglycerol)phosphate and association with phospholipidosis” (Journal of Lipid Research, 2024)

Target: T1, recombinant human LPLA2 (hLPLA2) (Homo sapiens, UniProt Q8NCC3)
T1 construct: gene PLA2G15; recombinant human enzyme from Proteos
T1 sequence (Q8NCC3 34-412): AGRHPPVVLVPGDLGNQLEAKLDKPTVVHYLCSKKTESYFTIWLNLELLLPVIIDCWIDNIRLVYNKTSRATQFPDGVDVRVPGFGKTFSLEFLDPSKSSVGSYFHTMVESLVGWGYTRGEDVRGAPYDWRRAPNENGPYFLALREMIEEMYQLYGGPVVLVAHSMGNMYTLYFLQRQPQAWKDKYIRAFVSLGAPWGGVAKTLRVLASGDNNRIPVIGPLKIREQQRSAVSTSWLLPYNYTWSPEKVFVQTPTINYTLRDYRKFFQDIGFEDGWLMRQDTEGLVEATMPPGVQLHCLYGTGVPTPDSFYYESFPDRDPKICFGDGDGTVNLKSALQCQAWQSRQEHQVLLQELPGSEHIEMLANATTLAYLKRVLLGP
Experiment: oleic acid release from liposomes, HPTLC
Assay type: biochemical
Details: DODPC/S,S-(3,3′,C18:1)-BMP liposomes (2.3:1), 50 mM sodium acetate pH 4.5, 37°C, 5 min pre-incubation of drug with liposomes; read-out: Lipase Inhibition IC50 μM (BMP)^g
Text: oleic acid release from liposomes, HPTLC on recombinant human LPLA2 (hLPLA2)

Structure (SMILES)	IC50 [µM]
CC[C@H](NC(=O)c1c(C)c(-c2ccccc2)nc2ccccc12)c1ccccc1 [SB222200, 3-methyl-2-phenyl-N-[(1S)-1-phenylpropyl]quinoline-4-carboxamide]	28.7
CCCCc1oc2ccccc2c1C(=O)c1cc(I)c(OCCN(CC)CC)c(I)c1 [amiodarone, (2-butyl-1-benzofuran-3-yl)-[4-[2-(diethylamino)ethoxy]-3,5-diiodophenyl]methanone]	18
CCOC(=O)C1=C(COCCN)NC(C)=C(C(=O)OC)C1c1ccccc1Cl (stereo not drawn) [amlodipine, 3-O-ethyl 5-O-methyl 2-(2-aminoethoxymethyl)-4-(2-chlorophenyl)-6-methyl-1,4-dihydropyridine-3,5-dicarboxylate]	24
CC(C)(C)c1ccc(CN2CCN(C(c3ccccc3)c3ccc(Cl)cc3)CC2)cc1 (stereo not drawn) [buclizine, 1-[(4-tert-butylphenyl)methyl]-4-[(4-chlorophenyl)-phenylmethyl]piperazine]	16
COc1ccccc1OCCNCC(O)COc1cccc2[nH]c3ccccc3c12 (stereo not drawn) [carvedilol, 1-(9H-carbazol-4-yloxy)-3-[2-(2-methoxyphenoxy)ethylamino]propan-2-ol]	34.7
CN(C)CCCN1c2ccccc2Sc2ccc(Cl)cc21 [chlorpromazine, 3-(2-chlorophenothiazin-10-yl)-N,N-dimethylpropan-1-amine]	9.7
CN(C)CCC=C1c2ccccc2C=Cc2ccccc21 [cyclobenzaprine, N,N-dimethyl-3-(2-tricyclo[9.4.0.03,8]pentadeca-1(15),3,5,7,9,11,13-heptaenylidene)propan-1-amine]	13.2
CCC(=O)O[C@@H](O[P@](=O)(CCCCc1ccccc1)CC(=O)N1C[C@H](C2CCCCC2)C[C@H]1C(=O)O)C(C)C [fosinopril, (2S,4S)-4-cyclohexyl-1-[2-[(2-methyl-1-propanoyloxypropoxy)-(4-phenylbutyl)phosphoryl]acetyl]pyrrolidine-2-carboxylic acid]	0.849
O=C(O)[C@@H]1C[C@@H](C2CCCCC2)CN1C(=O)CP(=O)(O)CCCCc1ccccc1 [fosinoprilat, (2S,4S)-4-cyclohexyl-1-{2-[hydroxy(4-phenylbutyl)phosphoryl]acetyl}pyrrolidine-2-carboxylic acid]	39.9

Continued, values first:

IC50 [µM]	Structure (SMILES)
18.5	C[C@]12CC[C@@H]3c4ccc(O)cc4C[C@@H](CCCCCCCCC[S+]([O-])CCCC(F)(F)C(F)(F)F)[C@H]3[C@@H]1CC[C@@H]2O (stereo partly drawn) [fulvestrant, (7R,8R,9S,13S,14S,17S)-13-methyl-7-[9-(4,4,5,5,5-pentafluoropentylsulfinyl)nonyl]-6,7,8,9,11,12,14,15,16,17-decahydrocyclopenta[a]phenanthrene-3,17-diol]
41.7	CN(CCCN1c2ccccc2CCc2ccccc21)CC(=O)c1ccc(Cl)cc1 [lofrepramine, 1-(4-chlorophenyl)-2-[3-(5,6-dihydrobenzo[b][1]benzazepin-11-yl)propyl-methylamino]ethanone]
21.8	CCOC(=O)N1CCC(=C2c3ccc(Cl)cc3CCc3cccnc32)CC1 [loratadine, ethyl 4-{13-chloro-4-azatricyclo [9.4.0.03, 8]pentadeca1(11),3(8), 4,6,12,14-hexaen-2-ylidene}piperidine-1-carboxylate]
31.1	C1CCC(C(CC2CCCCN2)C2CCCCC2)CC1 (stereo not drawn) [perhexiline, 2-(2,2-dicyclohexylethyl) piperidine]
40.9	CCN(CC)C(C)CN1c2ccccc2Sc2ccccc21 (stereo not drawn) [profenamine, N,N-diethyl-1-phenothiazin-10-ylpropan-2-amine]
45.8	CC(C)NCC(O)COc1cccc2ccccc12 (stereo not drawn) [propranolol, 1-(naphthalen-1-yloxy)-3-[(propan-2-yl)amino] propan-2-ol]
50.6	O=C(c1ccc(OCCN2CCCCC2)cc1)c1c(-c2ccc(O)cc2)sc2cc(O)ccc12 [raloxifene, [6-hydroxy-2-(4-hydroxyphenyl)-1-benzothiophen-3-yl]-[4-(2-piperidin-1-ylethoxy)phenyl]methanone]
20.9	NCC[C@H](Oc1ccc(C(F)(F)F)cc1)c1ccccc1 [seproxitine, (3S)-3-phenyl-3-[4-(trifluoromethyl)phenoxy]propan-1-amine]
20.1	CC/C(=C(\c1ccccc1)c1ccc(OCCN(C)C)cc1)c1ccccc1 [tamoxifen]
